Reference: patent publication US7989433B2, “Substituted thieno[3,2-D]pyrimidines as melanin concentrating hormone receptor-1 antagonists” (Bristol-Myers Squibb Company, priority 2008, dated 2011)

Columns and labels:
MCHR [1] = target: T1, MCHR (Rattus norvegicus, UniProt P97639); assay: Assessment of in vivo MCHR activity in young growing rats (four day efficacy model); conditions: for Weight Reduction versus Vehicle: young growing rats; for Efficacy at 30 mg/kg (weight loss in young growing rats): 30 mg/kg daily p.o. of ester prodrug, four day model
T1 construct: from tissue; host or cells: whole animal: male Sprague Dawley / Charles River rats
T1 sequence (P97639 whole entry): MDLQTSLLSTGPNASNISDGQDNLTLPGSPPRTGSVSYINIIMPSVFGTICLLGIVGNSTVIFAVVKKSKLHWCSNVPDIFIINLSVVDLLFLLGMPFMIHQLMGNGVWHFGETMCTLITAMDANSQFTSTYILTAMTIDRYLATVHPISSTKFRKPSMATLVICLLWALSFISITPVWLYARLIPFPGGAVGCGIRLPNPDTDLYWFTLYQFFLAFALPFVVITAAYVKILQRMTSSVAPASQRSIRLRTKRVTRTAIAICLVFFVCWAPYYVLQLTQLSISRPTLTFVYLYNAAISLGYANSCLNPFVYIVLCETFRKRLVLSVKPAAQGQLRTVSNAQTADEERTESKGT
Method: Male SPRAGUE DAWLEY® (CD, Charles River Breeding Laboratory) rats weighing approximately 240 grams were place in individual plastic cages with ALPHADRI® bedding. The room was maintained at 72° F. and 50% humidity, and a 12/12 light dark cycle with lights out at 1600 hours. The rats were conditioned for 5 days prior to the start of the study to having a choice of foods. A normal chow (HARLAN TEKLAD®, 2018) that contains 18% protein, 5% fat and 73% carbohydrate and a high fat high sugar diet (Research Diets (D2327)) that contains 20% protein, 40% fat and 40% carbohydrate where the carbohydrate is entirely sucrose and the fat is soybean and coconut oil. […] Body weight and consumption of both kinds of food as well as water intake were measured daily. Water was available ad lib throughout the study. Food consumption is presented as daily caloric consumption which is the sum of grams of chow multiplied by the Kcal per gram (3.5) plus grams of high fat high sugar multiplied by Kcal per gram (4.59).
Baseline body weight was measured prior to drug treatment on day 0 of the study. Baseline food consumption was the average of the 3 days prior to the first drug treatment. […] All data were evaluated using ANOVA and Fishers PLSD statistics.

MCHR [2] = target: T1, MCHR; assay: Assessment of MCHR in vivo activity in mature obese rats; conditions: dosed as prodrug
Method: Male rats, obtained from Charles River Laboratories weighing 250-300 g, were singly housed in plastic cages on a 12 hour light, 12 hour dark cycle with lights out at 1 pm. The animal room was maintained at 72 degrees F. and 50% humidity. The rats were made obese by giving them simultaneous access to two different diets, HARLAN TEKLAD® rat chow (standard chow) and Research Diets D12327 (a high fat, high carbohydrate, highly palatable diet). The Research Diets chow is comprised of 40% vegetable fat, 40% carbohydrate (sucrose) and 20% protein. The Harlan diet is comprised of 5% fat (soybean oil), 67% carbohydrate (starch) and 22% protein. The normal Harlan rat diet used contains 3.4 kcal/gram of diet, and Research Diet #12327 contains 4.59 kcal/gram. The rats were on the choice diet regime for 10 weeks in order to induce obesity. Once started on the choice diet regime the rats are maintained on it for the duration of the study. Baseline feeding and body weight were collected and used to sort animals into treatment groups. Mean rat weight at the start of the choice diet was 250 grams. The mean weight of the rats at the start of chronic dosing was 661.7±6.3 (mean±sem) grams.
Rats were dosed orally one hour before the start of the dark cycle. Body weight and food consumption were measured daily at the time of dosing. Food consumption was converted to Kcal consumed. Total Kcal consumed was determined by adding the Kcal consumed for each diet and this was determined by multiplying grams of each diet consumed times the Kcal/gram. […]

[3] = target: T2, mutated (E4Q, A5T) hMCHR1 receptor (Homo sapiens, UniProt Q99705, A5T/E4Q); assay: Radioligand binding assay for assessment of MCHR1 activity; conditions: competition vs [Phe13,[125I]Tyr19]-MCH, HEK-293 membranes
T2 construct: expressed in transfected cells; host or cells: HEK-293 (stably transfected), membrane preparation
T2 sequence (Q99705 whole entry E4Q/A5T): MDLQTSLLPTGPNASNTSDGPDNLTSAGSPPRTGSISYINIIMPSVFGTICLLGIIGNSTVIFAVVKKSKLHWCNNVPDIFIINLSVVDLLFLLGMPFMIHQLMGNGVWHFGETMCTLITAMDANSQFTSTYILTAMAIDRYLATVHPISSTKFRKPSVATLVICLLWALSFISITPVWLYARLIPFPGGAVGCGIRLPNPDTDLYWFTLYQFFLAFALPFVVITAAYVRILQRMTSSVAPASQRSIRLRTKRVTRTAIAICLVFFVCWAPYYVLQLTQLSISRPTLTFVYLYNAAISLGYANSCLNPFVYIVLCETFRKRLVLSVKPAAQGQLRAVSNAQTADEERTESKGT
Description: Compounds of the present invention, namely Compounds IA and IB of the invention, and Compounds a to f (prepared as described in U.S. Patent Publication No. 2007/0093509 A1 published Apr. 26, 2007), were initially characterized in an in vitro binding assay to determine their Ki or ability to antagonize binding of a peptide agonist to the human melanin concentrating hormone receptor (MCHR1).
Radioligand Binding Assay for Assessment of MCHR1 Activity
Membranes from stably transfected HEK-293 cells expressing a mutated (E4Q, A5T) hMCHR1 receptor were prepared by dounce homogenization and differential centrifugation. Binding experiments were carried out with 0.5-1.0 ug of membrane protein incubated in a total of 0.2 ml in 25 mM HEPES (pH 7.4) with 10 mM MgCl2, 2 mM EGTA, and 0.1% BSA (Binding Buffer) for 90 min. For competition binding assays, reactions were carried out in the presence of with 0.06-0.1 nM [Phe^13, [^125I]Tyr^19]-MCH and increasing concentrations of unlabeled test molecules. Reactions were terminated by rapid vacuum filtration over 96 well-GFC Unifilter plates pre-coated with 0.075 ml binding buffer containing 1% BSA, and washed 3 times with 0.4 ml of Phospho-buffered Saline (pH 7.4) containing 0.01% TX-100, Filters were dried, 0.05 ml MicroScint 20 was added to each well and radioactivity was subsequently quantified by scintillation counting on a TOPCOUNT® microplate scintillation counter (Packard). Inhibitory constants were determined by nonlinear least squares analysis using a four parameter logistic equation.

[4] = Rat PK model / eight hour PK study after oral prodrug ester; type: in vivo; conditions: Sprague-Dawley; for AUC: blood, 10 mg/kg oral prodrug ester, 8 hr AUC of bio-active substance, no unit in table (b280 micromole*hr); for Kp: brain and plasma, 10 mg/kg oral dose of amino acid ester prodrug (valine or glycine), bio-active substance
Method: The relative ability of the prodrug to enhance exposure (bioavailability) was assessed in an eight hour PK study using cannulated SPRAGUE DAWLEY® (CD, Charles River Breeding Laboratory) rats. The compounds (parent and pro-drug esters) were administered p.o. at 2.0 ml/kg as a suspension in 0.5% methyl cellulose, 0.1% Tween 80 in water at 10 mg/kg p.o. Blood samples were taken at 1, 2, 4 and 8 hr. After determination of parent concentration, an AUC was calculated for the eight hour study.

[5] = One month rat study, formation of biliary lesions; type: in vivo; conditions: for Formation of Biliary Lesions: rats; for biliary lesion formation in rats: doses up to 300 mg/kg for a month
Description: Further investigation established that the toxic agent was a metabolite arising from in vivo oxidative hydroxylation of the alkyl chain containing the tertiary carbinol moiety of compound f.

[6] = test system: cytochrome P450 enzymes (rat microsomal); assay: Metabolic stability versus rat microsomal oxidative degradation; conditions: rat microsomal oxidative degradation mediated by cytochrome P450
hepatocytes [7] = assay: Hepatocyte clearance, human; type: in vitro ADME
Description: As a consequence the projected human half-life for these two compounds was predicted to be 20 to 40 hr.

[8] = Full PK study in dog (half-life); conditions: in vivo
hepatocytes [9] = assay: Hepatocyte clearance, dog; type: in vitro ADME
[10] = 3 mg/kg p.o. daily day 0-4, dosed as prodrug
[11] = 10 mg/kg p.o. daily day 0-4, dosed as prodrug
[12] = 30 mg/kg p.o. daily day 0-4, dosed as prodrug

Compound | Ki [3] [nM] | AUC [4] [µM·h] | Kp [4] | Efficacy at 30 mg/kg (weight loss in young growing rats) (MCHR [1]) [%] | Formation of Biliary Lesions [5] | Rat Microsomal Stability [6] [%] | hepatocyte clearance (hepatocytes [7]) | half-life ([8]; Dog Half-life (hr)) [h] | also measured
(R)-6-(4-Chlorophenyl)-3-(4-(2-cyclopropyl -2-hydroxyethoxy)-3-methoxyphenyl)-thieno[3,2-d]pyrimidin-4(3H)-one [IA] | – | – | – | – | – | – | – | – | Weight Reduction versus Vehicle (MCHR [1]; [10]): 2.6%; Weight Reduction versus Vehicle (MCHR [1]; [11]): 3.5%; Weight Reduction versus Vehicle (MCHR [1]; [12]): 6.4%; Weight Reduction versus Vehicle (MCHR [2]; 0.3 mg/kg oral chronic dosing): 2.09%; Weight Reduction versus Vehicle (MCHR [2]; 1 mg/kg oral chronic dosing): 3.90%; Weight Reduction versus Vehicle (MCHR [2]; 3 mg/kg oral chronic dosing): 3.57%; Weight Reduction versus Vehicle (MCHR [2]; 10 mg/kg oral chronic dosing): 8.42%; Weight Reduction versus Vehicle (MCHR [2]; 30 mg/kg oral chronic dosing): 10.16%
CCC(O)COc1ccc(-n2cnc3cc(-c4ccc(Cl)cc4)sc3c2=O)cc1OC (stereo not drawn) [c] | 12 | 14.5 | 3.2 | 4.1 | No | 60 | – | – | –
CCS(=O)(=O)CC(O)COc1ccc(-n2cnc3cc(-c4ccc(Cl)cc4)sc3c2=O)cc1OC (stereo not drawn) [e] | 8 | 46 | 0.09 | 4.5 | No | 100 | – | – | –
COc1cc(-n2cnc3cc(-c4ccc(Cl)cc4)sc3c2=O)ccc1OCC1(O)CC(F)(F)C1 [IB, 6-(4-Chlorophenyl)-3-(4-((3,3-difluoro-1-hydroxycyclobutyl)methoxy)-3-methoxyphenyl)thieno[3,2-d]pyrimidin-4(3H)-one] | 18 | 38 | 2.5 | 7.9 | No | 95 | approximated that of dog | < 20 | Weight Reduction versus Vehicle (MCHR [1]; 1 mg/kg p.o. daily day 0-4, dosed as prodrug): 2.9%; Weight Reduction versus Vehicle (MCHR [1]; [10]): 4.5%; Weight Reduction versus Vehicle (MCHR [1]; [11]): 6.4%; Weight Reduction versus Vehicle (MCHR [1]; [12]): 7.9%; Weight Reduction versus Vehicle (MCHR [2]; 0.03 mg/kg oral chronic dosing): 1.7%; Weight Reduction versus Vehicle (MCHR [2]; 0.1 mg/kg oral chronic dosing): 3.2%; Weight Reduction versus Vehicle (MCHR [2]; 0.3 mg/kg oral chronic dosing): 5.0%; Weight Reduction versus Vehicle (MCHR [2]; 1 mg/kg oral chronic dosing): 6.6%; Weight Reduction versus Vehicle (MCHR [2]; 3 mg/kg oral chronic dosing): 7.8%; biliary lesion formation in rats [5]: neither compound IA nor compound IB induced biliary lesion formation; half-life [8]: 16 h
COc1cc(-n2cnc3cc(-c4ccc(Cl)cc4)sc3c2=O)ccc1OC[C@H](O)C1CC1 [IA, (R)-6-(4-Chlorophenyl)-3-(4-(2-cyclopropyl-2-hydroxyethoxy)-3-methoxyphenyl)-thieno[3,2-d]pyrimidin-4(3H)-one] | 10 | 24.5 | 0.9 | 6.4 | No | 92 | approximated that of dog | < 20 | biliary lesion formation in rats [5]: neither compound IA nor compound IB induced biliary lesion formation
COc1cc(-n2cnc3cc(-c4ccc(Cl)cc4)sc3c2=O)ccc1OCC1(O)COC1 [b] | – | – | – | 0 | Yes | 40 | – | – | –
COc1cc(-n2cnc3cc(-c4ccc(Cl)cc4)sc3c2=O)ccc1OCC(O)CC(F)(F)F (stereo not drawn) [d] | 11 | 20 | 1.1 | 3.2 | No | 100 | – | – | –
COc1cc(-n2cnc3cc(-c4ccc(Cl)cc4)sc3c2=O)ccc1OCC(C)(C)O [f] | 12 | 45 | 2 | 8.2 | Yes | 98 | very slow | > 200 | biliary lesions in rats ([5]; 30 mg/kg for a month): developed obstructive hepatic biliary lesions; hepatocyte clearance (hepatocytes [9]): very slow
COc1cc(-n2cnc3cc(-c4ccc(Cl)cc4)sc3c2=O)ccc1OCC1(O)CCC1 [a] | – | – | – | – | – | 20 | – | – | –
COc1cc(-n2cnc3cc(-c4ccc(Cl)cc4)sc3c2=O)ccc1OC[C@H](OC(=O)CN)C1CC1.Cl [Example 5, (R)-2-(4-(6-(4-Chlorophenyl)-4-oxothieno[3,2-d]pyrimidin-3(4H)-yl)-2-methoxy-phenoxy)-1-cyclopropylethyl 2-aminoacetate, hydrochloride salt] | – | – | – | – | – | – | – | – | melting point: 218 to 220 °C
